Literature values in US20060191043A1, “Low maintenance turfgrass” (priority 2004, published 2006).

Columns and labels:
[1] = target: glyphosate-resistant EPSPS isolate having a single amino acid substitution of an alanine for the glycine at position 96 (Escherichia coli, UniProt P0A6D3, G96A); details: alanine for glycine at position 96, read-out: apparent Ki for glyphosate
[2] = target: native EPSPS from E. coli (Escherichia coli, UniProt P0A6D3); details: read-out: apparent Km for PEP
Sequence of native EPSPS from E. coli (P0A6D3 whole entry): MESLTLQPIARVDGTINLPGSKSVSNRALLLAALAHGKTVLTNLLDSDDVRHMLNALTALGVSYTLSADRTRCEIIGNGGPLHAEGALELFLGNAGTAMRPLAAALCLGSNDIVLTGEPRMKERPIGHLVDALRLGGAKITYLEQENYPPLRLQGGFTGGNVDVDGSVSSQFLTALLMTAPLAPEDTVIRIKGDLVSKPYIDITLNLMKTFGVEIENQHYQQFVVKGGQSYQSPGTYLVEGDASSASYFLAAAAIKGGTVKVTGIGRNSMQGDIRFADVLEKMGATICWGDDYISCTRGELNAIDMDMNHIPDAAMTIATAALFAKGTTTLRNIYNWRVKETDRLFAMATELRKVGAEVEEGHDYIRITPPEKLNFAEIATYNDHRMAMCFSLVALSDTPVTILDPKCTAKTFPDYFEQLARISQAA

Sequence of glyphosate-resistant EPSPS isolate having a single amino acid substitution of an alanine for the glycine at position 96 (P0A6D3 whole entry G96A): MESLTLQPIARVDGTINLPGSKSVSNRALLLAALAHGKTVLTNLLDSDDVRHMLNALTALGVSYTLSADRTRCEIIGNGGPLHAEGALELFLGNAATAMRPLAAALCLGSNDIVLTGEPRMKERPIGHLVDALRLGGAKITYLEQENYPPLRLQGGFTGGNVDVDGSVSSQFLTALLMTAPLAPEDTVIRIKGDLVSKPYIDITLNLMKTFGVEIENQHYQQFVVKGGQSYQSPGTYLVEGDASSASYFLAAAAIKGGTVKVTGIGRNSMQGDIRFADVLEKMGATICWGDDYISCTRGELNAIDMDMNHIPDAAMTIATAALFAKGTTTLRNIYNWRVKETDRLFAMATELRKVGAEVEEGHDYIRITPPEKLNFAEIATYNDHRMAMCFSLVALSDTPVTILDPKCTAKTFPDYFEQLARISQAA

Row | SMILES | Ki [1] [mM] | Km [2] [µM]
1 | O=C(O)CNCP(=O)(O)O [glyphosate, N-phosphonomethylglycine] | 4 | –
2 | C=C(OP(=O)(O)O)C(=O)O [PEP] | – | 10
